Measured values taken from patent publication US20130324522A1, “INSECT ODORANT RECEPTOR ANTAGONISTS” (THE ROCKEFELLER UNIVERSITY, priority 2010, published 2013).
Where two headings read alike, the source gives them in different places.

Tests used:
Type in all cases: cell-based
[1] = biological target: OR28/OR7 (Anopheles gambiae, UniProt A0A1S4GFY3+Q7QCC7); test: Ca2+-imaging of stable HEK293T cell line OR28/OR7; conditions: for inhibition at 4 µM: HEK-293T, compound applied at 4 μM, read-out: Percent Inhibition OR28 OR7
OR28/OR7, sequence (A0A1S4GFY3 entry or part of it): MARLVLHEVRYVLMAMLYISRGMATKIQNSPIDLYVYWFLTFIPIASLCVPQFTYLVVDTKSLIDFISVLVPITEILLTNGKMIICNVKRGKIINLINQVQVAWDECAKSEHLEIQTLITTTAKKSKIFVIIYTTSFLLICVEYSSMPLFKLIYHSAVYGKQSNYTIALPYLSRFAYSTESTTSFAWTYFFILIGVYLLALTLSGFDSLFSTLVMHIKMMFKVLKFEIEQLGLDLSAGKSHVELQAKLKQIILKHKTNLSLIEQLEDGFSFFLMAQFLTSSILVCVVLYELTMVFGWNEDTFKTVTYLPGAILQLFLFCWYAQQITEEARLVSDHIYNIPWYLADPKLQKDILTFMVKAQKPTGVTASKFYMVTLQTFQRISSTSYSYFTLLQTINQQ
OR28/OR7, sequence (Q7QCC7 whole entry): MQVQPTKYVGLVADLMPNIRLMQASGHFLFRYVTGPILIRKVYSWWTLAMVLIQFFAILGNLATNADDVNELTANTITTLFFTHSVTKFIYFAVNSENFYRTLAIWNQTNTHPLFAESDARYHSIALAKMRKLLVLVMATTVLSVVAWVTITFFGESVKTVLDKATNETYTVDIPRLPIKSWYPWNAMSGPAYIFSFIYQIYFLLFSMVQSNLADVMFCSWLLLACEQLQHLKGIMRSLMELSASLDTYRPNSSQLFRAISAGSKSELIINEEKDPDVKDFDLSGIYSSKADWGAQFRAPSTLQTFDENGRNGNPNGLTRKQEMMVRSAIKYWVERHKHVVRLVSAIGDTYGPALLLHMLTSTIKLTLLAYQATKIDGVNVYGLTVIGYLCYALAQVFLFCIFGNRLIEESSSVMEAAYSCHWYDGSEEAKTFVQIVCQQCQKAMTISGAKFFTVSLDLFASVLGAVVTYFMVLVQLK
Method: (§1) Full-length cDNAs for mosquito (Anopheles gambiae) odorant receptor (OR1, OR2, OR7, OR8, OR28), and fly (Drosophila melanogaster) odorant receptor (Or47a, Or83b), mouse TRP channel (TRPM8), and mouse serotonin receptor (5HT3) were obtained and subcloned into mammalian expression vectors. The following mammalian expression vectors were used:
(§2) Stable cell lines OR1/OR7, OR2/OR7, OR8/OR7, OR10/OR7, OR28/OR7 and TRPM8 were generated from HEK293T cells. HEK293T-based cell lines were cultured in DMEM supplemented with these additional antibiotics: 6 μg/mL blasticidin and 1 μg/mL puromycin, with the exception of the TRPM8 cell lines, which was cultured in DMEM supplemented with 1 μg/mL puromycin.
(§3) Cells were trypsinized and split into 35 mm dishes one day before transfection. Confluent cells (60-70%) in 35 mm dishes were transfected with 1 μg of insect OR(X) plasmids in pME18s-bla and 1 μg of OR7-pME18s-puro using lipofectamine 2000. For Anopheles odorant receptors, two plasmids were co-transfected into HEK cells: the ligand-specific receptor (OR1, OR2, OR8, OR28) and the corresponding olfactory co-receptor: OR7. Cell lines containing TRPM8 were transfected with single plasmid.
(§4) Stable cell lines were cultured in 10 cm dishes, and confluent cells (70-80%) were trypsinized. 10,000 cells/20 μL were transferred into each well of 384-well plates coated with poly-D-lysine, and cultured for 2 days. For Flip-In T-Rex cells (cell lines expressing Or47a/Or83b and 5HT3), 5 μL of tetracycline (5 μg/mL) were added 1 day before the assay. 20 μL of Ca-4 dye was loaded into each well for 1.5 hr at room temperature in the dark, and the dye-loaded plates were subjected to Ca^2+-imaging using a Hamamatsu FDSS6000 real time fluorescence plate reader. Odorant solutions (9× final concentration) were prepared by dissolving 1M stock solutions into Hank's Buffered Salt Solution (HBSS), and 30 μL of odor solution was transferred to each well in 384-well plates.
(§5) Compounds ([…] in DMSO) were stored in 384-well plates, and last two columns (32 wells total) contained only DMSO. 200 nL of small compounds were transferred into the odorant plates before the assay using the Perkin-Elmer Janus workstation. The odorant plates were spun down to remove air bubbles, and placed on the FDSS6000 plate loader, and 5 μL of odorant solution was applied to the cell plate on the FDSS6000. Ca^2+ increase was monitored with fluorescence at 525 nm by excitation at 485 nm.

[2] = biological target: OR8/OR7 (Anopheles gambiae, UniProt Q7PUT5+Q7QCC7); test: Ca2+-imaging of stable HEK293T cell line OR8/OR7; conditions: for inhibition at 4 µM: HEK-293T, compound applied at 4 μM, read-out: Percent Inhibition OR8 OR7
OR8/OR7, sequence (Q7QCC7 whole entry): as above
OR8/OR7, sequence (Q7PUT5 entry or part of it): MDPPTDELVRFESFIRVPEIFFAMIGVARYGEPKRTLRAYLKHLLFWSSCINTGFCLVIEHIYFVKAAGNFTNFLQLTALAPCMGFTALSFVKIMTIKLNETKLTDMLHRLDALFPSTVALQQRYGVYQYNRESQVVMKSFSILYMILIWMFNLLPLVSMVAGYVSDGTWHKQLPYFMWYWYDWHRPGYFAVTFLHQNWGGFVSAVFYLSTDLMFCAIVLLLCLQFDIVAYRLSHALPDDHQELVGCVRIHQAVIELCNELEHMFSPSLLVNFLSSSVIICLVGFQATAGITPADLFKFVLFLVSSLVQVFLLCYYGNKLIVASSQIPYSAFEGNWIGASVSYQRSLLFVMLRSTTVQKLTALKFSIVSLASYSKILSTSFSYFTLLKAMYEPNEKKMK
Method: as §1, §2, §3, §4, §5

[3] = biological target: T1, TRP channel (TRPM8) (Mus musculus, UniProt Q8R4D5); test: Ca2+-imaging of stable HEK293T cell line TRPM8; conditions: for inhibition at 4 µM: HEK-293T, compound applied at 4 μM, read-out: Percent Inhibition TRPM8
T1 construct: Full-length cDNAs for mosquito (Anopheles gambiae) odorant receptor (OR1, OR2, OR7, OR8, OR28), and fly (Drosophila melanogaster) odorant receptor (Or47a, Or83b), mouse TRP channel (TRPM8); expressed in transfected cells
T1 sequence (Q8R4D5 whole entry): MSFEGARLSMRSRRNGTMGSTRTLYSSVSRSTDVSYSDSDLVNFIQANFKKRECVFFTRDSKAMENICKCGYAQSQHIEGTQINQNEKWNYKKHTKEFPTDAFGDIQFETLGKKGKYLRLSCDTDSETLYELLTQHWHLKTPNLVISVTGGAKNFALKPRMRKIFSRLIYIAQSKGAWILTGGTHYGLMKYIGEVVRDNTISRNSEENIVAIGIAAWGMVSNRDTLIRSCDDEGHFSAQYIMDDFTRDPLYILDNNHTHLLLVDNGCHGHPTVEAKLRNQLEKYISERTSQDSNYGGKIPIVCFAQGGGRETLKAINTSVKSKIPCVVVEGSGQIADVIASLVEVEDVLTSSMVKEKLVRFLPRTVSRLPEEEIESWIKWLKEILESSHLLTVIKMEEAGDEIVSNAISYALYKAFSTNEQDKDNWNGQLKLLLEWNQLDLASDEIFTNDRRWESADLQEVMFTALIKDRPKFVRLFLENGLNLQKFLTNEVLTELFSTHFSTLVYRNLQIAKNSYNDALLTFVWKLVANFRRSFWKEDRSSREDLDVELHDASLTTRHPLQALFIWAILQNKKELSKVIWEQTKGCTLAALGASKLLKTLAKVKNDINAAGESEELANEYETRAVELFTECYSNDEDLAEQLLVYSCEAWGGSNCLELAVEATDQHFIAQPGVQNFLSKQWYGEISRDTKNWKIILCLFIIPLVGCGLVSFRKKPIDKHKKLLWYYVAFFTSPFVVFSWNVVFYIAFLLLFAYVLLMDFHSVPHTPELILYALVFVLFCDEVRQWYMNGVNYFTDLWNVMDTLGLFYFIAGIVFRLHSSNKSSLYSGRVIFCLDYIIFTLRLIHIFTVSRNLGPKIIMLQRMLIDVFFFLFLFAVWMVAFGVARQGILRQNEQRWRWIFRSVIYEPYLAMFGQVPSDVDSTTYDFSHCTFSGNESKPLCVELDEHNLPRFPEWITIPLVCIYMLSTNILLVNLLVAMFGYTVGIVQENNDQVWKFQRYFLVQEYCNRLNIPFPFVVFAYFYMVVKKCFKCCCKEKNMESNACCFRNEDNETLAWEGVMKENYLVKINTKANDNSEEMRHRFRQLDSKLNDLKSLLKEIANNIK
Method: as §1, §2, §3, §4, §5

[4] = biological target: T2, Or47a/Or83b (Drosophila melanogaster, UniProt P81921+Q9VNB5); test: Ca2+-imaging of stable Flip-In T-Rex cell line Or47a/Or83b; conditions: for inhibition at 4 µM: compound applied at 4 μM, read-out: Percent Inhibition OR47a OR83b
T2 construct: Full-length cDNAs for mosquito (Anopheles gambiae) odorant receptor (OR1, OR2, OR7, OR8, OR28), and fly (Drosophila melanogaster) odorant receptor (Or47a, Or83b); expressed in transfected cells
T2 sequence (P81921 1-385): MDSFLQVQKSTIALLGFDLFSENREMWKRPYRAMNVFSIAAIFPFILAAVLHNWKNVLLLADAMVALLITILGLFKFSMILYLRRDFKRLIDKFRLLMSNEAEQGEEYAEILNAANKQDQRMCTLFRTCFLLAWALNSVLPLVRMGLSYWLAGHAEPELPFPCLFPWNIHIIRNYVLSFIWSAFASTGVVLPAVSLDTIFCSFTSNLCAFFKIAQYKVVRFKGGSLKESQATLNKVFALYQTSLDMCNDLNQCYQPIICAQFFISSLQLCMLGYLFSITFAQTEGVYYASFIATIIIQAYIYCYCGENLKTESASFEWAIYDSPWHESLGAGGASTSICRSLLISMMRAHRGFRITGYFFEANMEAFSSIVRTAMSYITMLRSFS
T2 sequence (Q9VNB5 1-486): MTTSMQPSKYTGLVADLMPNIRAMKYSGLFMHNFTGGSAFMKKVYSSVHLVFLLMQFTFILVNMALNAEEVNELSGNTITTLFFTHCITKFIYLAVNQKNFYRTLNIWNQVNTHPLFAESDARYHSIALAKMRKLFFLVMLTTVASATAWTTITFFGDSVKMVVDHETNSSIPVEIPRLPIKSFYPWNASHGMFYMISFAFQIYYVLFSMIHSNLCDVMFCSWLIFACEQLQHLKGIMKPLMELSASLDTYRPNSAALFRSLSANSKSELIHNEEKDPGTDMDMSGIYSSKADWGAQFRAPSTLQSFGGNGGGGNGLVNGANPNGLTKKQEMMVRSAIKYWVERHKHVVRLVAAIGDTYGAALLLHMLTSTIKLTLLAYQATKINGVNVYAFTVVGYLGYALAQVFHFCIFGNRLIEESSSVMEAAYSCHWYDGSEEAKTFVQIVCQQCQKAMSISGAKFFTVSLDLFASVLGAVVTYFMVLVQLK
Method: as §1
Stable cell lines Or47a/Or83b and 5HT3 were generated from Flip-In T-Rex cells. Flip-In T-Rex-based cell lines were cultured in DMEM supplemented with these additional antibiotics: 6 μg/mL blasticidin and 100 μg/mL hygromycin.
Cells were trypsinized and split into 35 mm dishes 1 day before transfection. Confluent cells (60-70%) in 35 mm dishes were co-transfected with 1 μg of Or47a/Or83b plasmid in pcDNA5/FRT/TO/IRES plus the pOG44 plasmid or 1 μg of 5HT3 plasmid in pcDNA5/FRT/TO plus the pOG44 plasmid using lipofectamine 2000. Co-transfection of pOG44 and pcDNA5/FRT/TO/IRES or pcDNA5/FRT/TO allows expression of Flp recombinase and integration of the pcDNA5 plasmid into the genome via the FRT site. After one day of incubation, the transfected cells were transferred into 10 cm dishes with DMEM containing antibiotics: 20 μg/mL of hygromycin and 6 μg/mL of blasticidin. The concentration of Hygromycin was increased to 100 μg/mL when the population of cells became 30-40% confluent. The cells were cultured by changing medium every two days until cell clumps appeared. The clumps were picked and transferred into 96 well plates with DMEM containing 100 μg/mL of Hygromycin and 6 μg/mL of blasticidin. The cells were grown and transferred to 24 well plates, and ligand-evoked calcium increases were tested using the Hamamatsu FDSS6000 real time fluorescence plate reader.
as §4, §5

Row | Compound | IC50 [1] | IC50 [2] | IC50 [3] | IC50 [4] | inhibition at 4 µM [1] | IC50 ([1]; Table B, read-out: IC50 OR28) | inhibition at 4 µM [2] | inhibition at 4 µM [3] | inhibition at 4 µM [4] | IC50 ([2]; Table B, read-out: IC50 OR8) | IC50 ([4]; Table B, read-out: IC50 OR47a) | IC50 ([3]; ligand menthol 300 μM, read-out: IC50 TRPM8) | IC50 ([4]; ligand pentyl acetate 30 μM, read-out: IC50 OR47a OR83b)
1 | CC(C)Nc1nc(NC(C)C)nc(C(F)(F)F)n1 [RU-T8] | > 20000 nM | 2000 to 20000 nM | > 20000 nM | > 20000 nM |  |  |  |  |  |  |  |  | 
2 | CCN(C)c1onc(-c2ccccc2)c1CN(CCCOC)C(=O)c1ccco1 [RU-0051926] |  |  |  |  | > 75% | > 1000 nM | < 25% | < 25% | 26 to 50% |  |  |  | 
3 | CC(C)CN(Cc1nccn1Cc1c(F)cccc1Cl)C(=O)c1ccc(F)cc1 [RU-0048054] |  |  |  |  | < 25% | < 100 nM | < 25% | < 25% | 26 to 50% |  |  |  | 
4 | O=C(c1ccco1)N(Cc1ccco1)Cc1nccn1Cc1ccccc1F [RU-0047694] |  |  |  |  | > 75% | < 100 nM | 51 to 74% | < 25% | 26 to 50% | 100 to 1000 nM |  |  | 
5 | CC(C)CN(Cc1nccn1Cc1ccc(Cl)cc1Cl)C(=O)c1ccccc1F [RU-0055322] |  |  |  |  | > 75% | < 100 nM | < 25% | < 25% | 26 to 50% |  |  |  | 
6 | CC(=O)OCC(=O)NCC1Cc2cc(Oc3ccccc3)ccc2O1 (centres unmarked) [RU-0079120] |  |  |  |  | > 75% | < 100 nM | < 25% | < 25% | 51 to 74% |  | < 100 nM |  | 
7 | CC(C)Nc1nc(Cl)nc(NC(C)C)n1 [RU-T1] | > 220000 nM | > 220000 nM |  |  |  |  |  |  |  |  |  | > 20000 nM | > 20000 nM
8 | CCCCCCCC(=O)N1CCCC(C(=O)NC2CCCC[C@H]2NC(=O)c2ccccc2C)C1 (some centres unmarked) [RU-0045756] |  |  |  |  | 51 to 74% | > 1000 nM | < 25% | < 25% | 26 to 50% |  |  |  | 
9 | O=C(c1c(F)c(F)cc(F)c1F)N1CCOC(Cc2ccccc2)C1 (centres unmarked) [RU-0050393] |  |  |  |  | > 75% | < 100 nM | 26 to 50% | < 25% | 26 to 50% |  |  |  | 
10 | COCCN(Cc1c(-c2ccccc2)noc1N(C)C1CCCCC1)C(=O)c1ccccc1OC [RU-0037275] |  |  |  |  | > 75% | < 100 nM | 51 to 74% | < 25% | 51 to 74% | > 1000 nM | > 1000 nM |  | 
11 | C=CCN(Cc1nccn1Cc1ccccc1F)C(=O)C1CCCC1 [RU-0058964] |  |  |  |  | > 75% | < 100 nM | 26 to 50% | 26 to 50% | 51 to 74% |  | > 1000 nM |  | 
12 | COc1ccc(OCC(=O)N2CCOC(Cc3ccccc3)C2)cc1 (centres unmarked) [RU-0050384] |  |  |  |  | > 75% | 100 to 1000 nM | < 25% | < 25% | 26 to 50% |  |  |  | 
13 | Cc1c(C(=O)NCc2ccco2)cnn1-c1ccccc1 [RU-0047765] |  |  |  |  | > 75% | < 100 nM | < 25% | 26 to 50% | 26 to 50% |  | > 1000 nM |  | 
14 | O=C(NCCC(=O)N1CCOC(COCc2ccc(F)cc2Cl)C1)OCc1ccccc1 (centres unmarked) [RU-0050344] |  |  |  |  | > 75% | < 100 nM | 26 to 50% | < 25% | 26 to 50% |  |  |  | 
15 | CN(C)c1ccc(C(=O)N2CCOC(COCc3ccccc3F)C2)cc1 (centres unmarked) [RU-0050325] |  |  |  |  | > 75% | < 100 nM | 26 to 50% | < 25% | 26 to 50% |  | > 1000 nM |  | 
16 | Fc1ccccc1/C=N/Nc1nc(N2CCCCC2)nc(N2CCOCC2)n1 [RU-0018338] |  |  |  |  | 51 to 74% | < 100 nM | < 25% | 26 to 50% | 51 to 74% |  | < 100 nM |  | 
17 | Cc1cc(C)c(Cn2ccnc2CN(C(=O)c2ccccc2F)C(C)C)c(C)c1 [RU-0048001] |  |  |  |  | > 75% | < 100 nM | 26 to 50% | 26 to 50% | 51 to 74% |  | > 1000 nM |  | 
